Toxic doses and inconclusive results are not listed.
Tested on: L1210 leukemia ip in BDF1 mice, survival T/C
Test: NCI In Vivo Anticancer Drug Screen. Data for tumor model L1210 Leukemia (intraperitoneal) in B6D2F1 (BDF1) mice
Settings: endpoint: mean survival time, higher = longer survival
Outline: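 Tumor was transplanted into mice, which were then dosed with test compound or vehicle alone. Survival was recorded for each group, and the treated figure was expressed relative to the control figure.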

[1] = dose: 100.0 mg/kg/injection, schedule: Q04DX003 (ip), vehicle: saline
[2] = dose: 200.0 mg/kg/injection, schedule: Q04DX003 (ip), vehicle: saline
[3] = dose: 100.0 mg/kg/injection, schedule: Q01DX009 (ip), vehicle: saline with Tween-80
[4] = dose: 100.0 mg/kg/injection, schedule: Q04DX003 (ip), vehicle: saline with Tween-80
[5] = dose: 200.0 mg/kg/injection, schedule: Q01DX009 (ip), vehicle: saline with Tween-80
[6] = dose: 400.0 mg/kg/injection, schedule: Q01DX009 (ip), vehicle: saline with Tween-80
[7] = dose: 400.0 mg/kg/injection, schedule: Q04DX003 (ip), vehicle: saline with Tween-80
[8] = dose: 50.0 mg/kg/injection, schedule: Q01DX009 (ip), vehicle: saline with Tween-80
[9] = dose: 100.0 mg/kg/injection, schedule: Q01DX001 (ip), vehicle: saline
[10] = dose: 200.0 mg/kg/injection, schedule: Q01DX001 (ip), vehicle: saline
[11] = dose: 100.0 mg/kg/injection, schedule: Q04DX002 (ip), vehicle: Klucel (hydroxypropylcellulose) (HPC)
[12] = dose: 200.0 mg/kg/injection, schedule: Q04DX002 (ip), vehicle: Klucel (hydroxypropylcellulose) (HPC)
[13] = dose: 400.0 mg/kg/injection, schedule: Q04DX002 (ip), vehicle: Klucel (hydroxypropylcellulose) (HPC)
[14] = dose: 100.0 mg/kg/injection, schedule: Q01DX009 (ip), vehicle: Klucel (hydroxypropylcellulose) (HPC)
[15] = dose: 100.0 mg/kg/injection, schedule: Q04DX003 (ip), vehicle: Klucel (hydroxypropylcellulose) (HPC)
[16] = dose: 200.0 mg/kg/injection, schedule: Q01DX009 (ip), vehicle: Klucel (hydroxypropylcellulose) (HPC)
[17] = dose: 200.0 mg/kg/injection, schedule: Q04DX003 (ip), vehicle: Klucel (hydroxypropylcellulose) (HPC)
[18] = dose: 400.0 mg/kg/injection, schedule: Q01DX009 (ip), vehicle: Klucel (hydroxypropylcellulose) (HPC)
[19] = dose: 400.0 mg/kg/injection, schedule: Q04DX003 (ip), vehicle: Klucel (hydroxypropylcellulose) (HPC)
[20] = dose: 100.0 mg/kg/injection, schedule: Q01DX009 (ip), vehicle: saline
[21] = dose: 200.0 mg/kg/injection, schedule: Q01DX009 (ip), vehicle: saline

Structure (SMILES): Cc1cccc2c(Nc3ccc(NS(C)(=O)=O)cc3)c3ccccc3nc12
- T/C (dose: 2.5 mg/kg/injection, schedule: Q01DX009 (ip), vehicle: Klucel (hydroxypropylcellulose) (HPC)): 115 % of control
- T/C (dose: 5.0 mg/kg/injection, schedule: Q01DX009 (ip), vehicle: Klucel (hydroxypropylcellulose) (HPC)): 115 % of control
- T/C (dose: 10.0 mg/kg/injection, schedule: Q01DX009 (ip), vehicle: Klucel (hydroxypropylcellulose) (HPC)): 117 % of control
- T/C (dose: 10.0 mg/kg/injection, schedule: Q01DX009 (ip), vehicle: saline with Tween-80): 120 % of control
- T/C (dose: 10.0 mg/kg/injection, schedule: Q01DX009 (sc), vehicle: saline): 112 % of control
- T/C (dose: 20.0 mg/kg/injection, schedule: Q01DX001 (ip), vehicle: saline with Tween-80): 121 % of control
- T/C (dose: 20.0 mg/kg/injection, schedule: Q01DX009 (ip), vehicle: Klucel (hydroxypropylcellulose) (HPC)): 224 % of control
- T/C (dose: 20.0 mg/kg/injection, schedule: Q01DX009 (ip), vehicle: saline with Tween-80): 166 % of control
- T/C (dose: 20.0 mg/kg/injection, schedule: Q01DX009 (sc), vehicle: saline): 110 % of control
- T/C (dose: 40.0 mg/kg/injection, schedule: Q01DX001 (ip), vehicle: saline with Tween-80): 117 % of control
- T/C (dose: 40.0 mg/kg/injection, schedule: Q01DX009 (ip), vehicle: Klucel (hydroxypropylcellulose) (HPC)): 103 % of control
- T/C (dose: 40.0 mg/kg/injection, schedule: Q01DX009 (ip), vehicle: saline with Tween-80): 178 % of control
- T/C (dose: 40.0 mg/kg/injection, schedule: Q01DX009 (sc), vehicle: saline): 113 % of control
- T/C (dose: 40.0 mg/kg/injection, schedule: Q04DX003 (ip), vehicle: saline with Tween-80): 159 % of control
- T/C (dose: 80.0 mg/kg/injection, schedule: Q01DX009 (ip), vehicle: saline with Tween-80): 116 % of control
- T/C (dose: 80.0 mg/kg/injection, schedule: Q04DX003 (ip), vehicle: Klucel (hydroxypropylcellulose) (HPC)): 164 % of control
- T/C (dose: 80.0 mg/kg/injection, schedule: Q04DX003 (ip), vehicle: saline with Tween-80): 151 % of control
- T/C [1]: 123 % of control
- T/C (dose: 160.0 mg/kg/injection, schedule: Q04DX003 (ip), vehicle: Klucel (hydroxypropylcellulose) (HPC)): 206 % of control
- T/C (dose: 160.0 mg/kg/injection, schedule: Q04DX003 (ip), vehicle: saline with Tween-80): 168 % of control
- T/C [2]: 167 % of control
- T/C (dose: 400.0 mg/kg/injection, schedule: Q04DX003 (ip), vehicle: saline): 94 % of control

Structure (SMILES): Cc1ccc(S(=O)(=O)N/N=C/c2cccs2)cc1
- T/C [3]: 90 % of control
- T/C [4]: 98 % of control
- T/C [5]: 88 % of control
- T/C (dose: 200.0 mg/kg/injection, schedule: Q04DX003 (ip), vehicle: saline with Tween-80): 98 % of control
- T/C [6]: 91 % of control
- T/C [7]: 109 % of control

Structure (SMILES): COc1cc(/C=C/[N+](=O)[O-])c([N+](=O)[O-])cc1OC
- T/C [8]: 90 % of control
- T/C [9]: 106 % of control
- T/C [3]: 87 % of control
- T/C [10]: 101 % of control

Structure (SMILES): O=C(Nc1cccc(Br)c1)c1ccc([N+](=O)[O-])s1
- T/C (dose: 50.0 mg/kg/injection, schedule: Q01DX005 (ip), vehicle: water): 89 % of control
- T/C (dose: 100.0 mg/kg/injection, schedule: Q01DX005 (ip), vehicle: water): 89 % of control
- T/C (dose: 200.0 mg/kg/injection, schedule: Q01DX005 (ip), vehicle: water): 89 % of control
- T/C (dose: 400.0 mg/kg/injection, schedule: Q01DX005 (ip), vehicle: water): 87 % of control

Structure (SMILES): COc1c(NC(=O)c2c(Br)c(Br)c(Br)c(Br)c2C(=O)O)cccc1[N+](=O)[O-]
- T/C [11]: 94 % of control
- T/C [12]: 102 % of control
- T/C [13]: 118 % of control

Structure (SMILES): CC(C)(C)C1CCC(N)CC1 (stereo not given)
- T/C (dose: 12.5 mg/kg/injection, schedule: Q01DX001 (ip), vehicle: carboxymethylcellulose (CMC)): 104 % of control
- T/C (dose: 25.0 mg/kg/injection, schedule: Q01DX001 (ip), vehicle: carboxymethylcellulose (CMC)): 98 % of control
- T/C (dose: 50.0 mg/kg/injection, schedule: Q01DX001 (ip), vehicle: carboxymethylcellulose (CMC)): 104 % of control

Structure (SMILES): NCOC(=O)Cc1ccc(Br)cc1
- T/C [14]: 98 % of control
- T/C [15]: 96 % of control
- T/C [16]: 101 % of control
- T/C [17]: 101 % of control
- T/C [18]: 96 % of control
- T/C [19]: 101 % of control

Structure (SMILES): CC1(c2ccc(Cl)cc2)NC(=O)N(CC(N)=O)C1=O (stereo not given)
- T/C [4]: 105 % of control
- T/C [7]: 122 % of control

Structure (SMILES): Cc1ccc(S(=O)(=O)N(C)c2ccc(I)c(Cl)c2Cl)cc1
- T/C [15]: 102 % of control
- T/C [17]: 96 % of control
- T/C [19]: 98 % of control

Structure (SMILES): COCC1OC(OC(=O)c2ccccc2)C(OC(=O)c2ccccc2)C(OC(=O)c2ccccc2)C1OC (stereo not given)
- T/C (dose: 12.5 mg/kg/injection, schedule: Q01DX009 (ip), vehicle: saline with Tween-80): 97 % of control
- T/C (dose: 25.0 mg/kg/injection, schedule: Q01DX009 (ip), vehicle: saline with Tween-80): 95 % of control
- T/C [8]: 93 % of control

Structure (SMILES): O=C(c1ccccc1)C(c1ccccc1)C(O)(C(F)(F)F)C(F)(F)F (stereo not given)
- T/C [3]: 103 % of control
- T/C [5]: 97 % of control

Structure (SMILES): O=C(O)CO
- T/C (dose: 50.0 mg/kg/injection, schedule: Q01DX001 (ip), vehicle: saline): 94 % of control
- T/C [9]: 97 % of control
- T/C [3]: 107 % of control
- T/C [10]: 108 % of control
- T/C [5]: 100 % of control
- T/C [6]: 93 % of control

Structure (SMILES): N#CC(CC(=O)c1ccc(Cl)cc1)c1ccccc1 (stereo not given)
- T/C [3]: 91 % of control
- T/C [5]: 96 % of control
- T/C [6]: 91 % of control

Structure (SMILES): CC(C)C1CCC(C)C(C(O)(C(F)(F)F)C(F)(F)F)C1=O (stereo not given)
- T/C [20]: 114 % of control
- T/C [21]: 97 % of control
- T/C (dose: 400.0 mg/kg/injection, schedule: Q01DX009 (ip), vehicle: saline): 97 % of control

Structure (SMILES): O=C(Nc1cccc2ccccc12)c1ccc(Cl)cc1Cl
- T/C [14]: 103 % of control
- T/C [16]: 100 % of control
- T/C [18]: 96 % of control

Structure (SMILES): COC(=O)COC1=NCC([N+](=O)[O-])CC1 (stereo not given)
- T/C [15]: 100 % of control
- T/C [17]: 107 % of control
- T/C [19]: 102 % of control

Structure (SMILES): CC(=O)OCCSc1ccc(C)cc1
- T/C [11]: 100 % of control
- T/C [12]: 103 % of control
- T/C [13]: 100 % of control

Structure (SMILES): O=C(NCCc1ccccc1)C1CCN(CCc2ccccc2)CC1
- T/C (dose: 100.0 mg/kg/injection, schedule: Q01DX001 (ip), vehicle: other): 107 % of control

Structure (SMILES): CN(C)CCOc1ccccc1Cc1ccccc1
- T/C (dose: 12.5 mg/kg/injection, schedule: Q01DX009 (ip), vehicle: saline): 96 % of control
- T/C (dose: 25.0 mg/kg/injection, schedule: Q01DX009 (ip), vehicle: saline): 97 % of control
- T/C (dose: 25.0 mg/kg/injection, schedule: Q04DX003 (ip), vehicle: saline): 107 % of control
- T/C (dose: 50.0 mg/kg/injection, schedule: Q01DX009 (ip), vehicle: saline): 90 % of control
- T/C (dose: 50.0 mg/kg/injection, schedule: Q04DX003 (ip), vehicle: saline): 98 % of control
- T/C [20]: 103 % of control
- T/C [1]: 107 % of control
- T/C [21]: 110 % of control
- T/C [2]: 107 % of control

Structure (SMILES): NC(=S)N/N=C/c1c(Cl)n(C(=O)c2ccccc2)c2ccccc12
- T/C (dose: 50.0 mg/kg/injection, schedule: Q04DX002 (ip), vehicle: Klucel (hydroxypropylcellulose) (HPC)): 98 % of control
- T/C [11]: 87 % of control
- T/C [12]: 87 % of control

Structure (SMILES): Nc1nc(N)c2c(n1)CCP(c1ccccc1)C2 (stereo not given)
- T/C (dose: 12.5 mg/kg/injection, schedule: Q04DX003 (ip), vehicle: saline with Tween-80): 98 % of control
- T/C (dose: 25.0 mg/kg/injection, schedule: Q04DX003 (ip), vehicle: saline with Tween-80): 96 % of control
- T/C (dose: 50.0 mg/kg/injection, schedule: Q04DX003 (ip), vehicle: saline with Tween-80): 95 % of control
